The values below are quoted from earlier work in paper PMC8236845.

Like-named read-outs stand apart in the source and are kept apart here. Numbered stars: 1 amine (or outer) side, 2 acyl side, 3 side chain; on linkers, the order of the positions; unused ones are H or OH. Bridge positions count the residues as written; N and C are the ends. Square brackets hold non-standard residues; d marks the D form. Peptide text beside a SMILES is read from it. * marks the point of attachment. pTerphenylCO(4''-OnC5H11) = CCCCCOc1ccc(-c2ccc(-c3ccc(C(=O)*)cc3)cc2)cc1; Orn(4R-OH,5R-OH) = O=C([C@H](C[C@@H](O)[C@@H](O)N[*:3])N[*:1])[*:2]; hTyr(3S-OH,4S-OH) = N[C@H](C(=O)O)[C@H](O)[C@@H](O)c1ccc(O)cc1; Pro(3S-OH,4S-Me) = C[C@H]1CN[C@H](C(=O)O)[C@H]1O; Hyp = O=C(O)[C@@H]1C[C@@H](O)CN1

The conditions of series [1]: used in the context of chemotherapy, cited from earlier work.
The conditions of series [2]: human, in vivo, cited from earlier work.
For the next series, the system named is SARS-CoV-2. Conditions: 2021, cited from earlier work.
For the next series, the system named is SARS-CoV-1. Conditions: cited from earlier work.
In series [3] the test system is Middle Eastern Respiratory Syndroms (MERS) coronaviruses. As to conditions: cited from earlier work.
The conditions of series [4]: cited from earlier work.
For series [5], the system named is SARS-CoV-2-related Pangolin corona virus. Conditions: cited from earlier work.
[6] abbreviates: DOGS topical 24 mg/kg, ref Sarasola et al. (2002).

`CC(=O)O[C@@]12CO[C@@H]1C[C@H](O)[C@@]1(C)C(=O)[C@H](O)C3=C(C)[C@@H](OC(=O)[C@H](O)[C@@H](NC(=O)OC(C)(C)C)c4ccccc4)C[C@@](O)([C@@H](OC(=O)c4ccccc4)[C@H]21)C3(C)C` [Docetaxel]: in series [1] (ref Gustafson et al., 2003), the “side effects” value was “moderate to severe side effects”. In addition, in series [2] (iv), the “C max” value is 933 ng/mL and the Cmax (in general, the maximum level reached in the sampled fluid or tissue) was 1.23 µM.
Regarding `Cc1cn(-c2cc(NC(=O)c3ccc(C)c(Nc4nccc(-c5cccnc5)n4)c3)cc(C(F)(F)F)c2)cn1` [Nilotinib AMN-107, Nilotinib], the IC50 (in general, the concentration that inhibits the measured activity by half) in the series on SARS-CoV-2 (ref Cagno et al., read-out: IC50 of inhibition of SARS-CoV-2 infection in vitro) is 1.5 to 3 µM. Further, in series [2] (po, 300 mg), the “C max (ng/ml)” value is 1,360 ng/ml and the maximum concentration (Cmax) is 2.57 µM.
On to `CC[C@H](C)[C@@H]1NC(=O)[C@H](Cc2ccc(O)cc2)NC(=O)[C@@H](N)CSSC[C@@H](C(=O)N2CCC[C@H]2C(=O)N[C@@H](CC(C)C)C(=O)NCC(N)=O)NC(=O)[C@H](CC(N)=O)NC(=O)[C@H](CCC(N)=O)NC1=O` [Oxytocin], for which the “C max” value in series [2] (inhaled or intranasal, 44 ug) was 0.005 ng/mL; in series [2] (iv), 0.005 ng/mL. Also, the maximum concentration (Cmax) in series [2] (inhaled or intranasal, 44 ug) was 0.005 µM; in series [2] (iv) it was 0.005 µM.
For `Cc1ccc(NC(=O)c2ccc(CN3CCN(C)CC3)cc2)cc1Nc1nccc(-c2cccnc2)n1` [Imatinib], the “inhibition of SARS-CoV-2 in cell-culture-based studies” value with SARS-CoV-2 (ref Cagno et al.) was “failed to inhibit”. Also, the “inhibition of SARS-CoV-1” value in the series on SARS-CoV-1 is “reported to inhibit”. The “inhibition of MERS coronavirus” value in series [3] is listed as “reported to inhibit”.
Turning to `CO[C@H]1C[C@H](O[C@@H]2/C(C)=C/C[C@@H]3C[C@@H](C[C@]4(CC[C@H](C)[C@@H](C5CCCCC5)O4)O3)OC(=O)[C@@H]3C=C(C)/C(=N/O)[C@H]4OC/C(=C\C=C\[C@@H]2C)[C@]43O)O[C@@H](C)[C@@H]1O` [Selamectin], the highest concentration (Cmax) was 9.9 µM in series [4] (DOGS oral 24 mg/kg, ref Sarasola et al. (2002)) and 0.11 µM in series [4] (setting [6]). Also, the “C max” value in series [4] (setting [6]) is 86.5 ng/mL. Besides, the “tolerability” value in series [4] (oral, dogs, ref Sarasola et al., 2002) was “well tolerated”. In series [5], the “inhibition of cytopathic effect” value is listed as “inhibited the cytopathic effect”.
Take `C[C@]12CC[C@@H]3c4ccc(OC(=O)c5ccccc5)cc4CC[C@H]3[C@@H]1CC[C@@H]2O` [Estradiol benzoate]: the “inhibition of SARS-COV-2 replication in culture” value in the series with SARS-CoV-2 (ref Yang et al.) is “reported to inhibit”. In series [2] (im, 5 mg), the “C max” value was 0.75 ng/mL and the Cmax is 0.002 µM.
`COc1cc([C@@H]2c3cc4c(cc3[C@H](O)[C@H]3COC(=O)[C@@H]23)OCO4)cc(OC)c1OC` [Picropodophyllin]: in series [1] (ref Ekman et al., 2016), the “side effects” value is “moderate to severe side effects”. In addition, in series [2] (po, 520 mg), the “C max (ng/ml)” value is on record as 207–1,035 ng/ml and the Cmax is 0.5 to 2.5 µM.
Turning to `CCCCCOc1ccc(-c2ccc(-c3ccc(C(=O)N[C@H]4C[C@@H](O)[C@@H](O)NC(=O)[C@@H]5[C@@H](O)[C@@H](C)CN5C(=O)[C@H]([C@@H](C)O)NC(=O)[C@H]([C@H](O)[C@@H](O)c5ccc(O)cc5)NC(=O)[C@@H]5C[C@@H](O)CN5C(=O)[C@H]([C@@H](C)O)NC4=O)cc3)cc2)cc1` [Anidulafungin] ({pTerphenylCO(4''-OnC5H11)}-[Orn(4R-OH,5R-OH)]T[Hyp][hTyr(3S-OH,4S-OH)]T[Pro(3S-OH,4S-Me)]; lactam 1-C), in series [2] (iv), the “C max (ng/ml)” value was 2,500 ng/ml and the Cmax was 2.2 µM.
Regarding `Cc1nc(Nc2ncc(C(=O)Nc3c(C)cccc3Cl)s2)cc(N2CCN(CCO)CC2)n1` [Dasatinib], the “inhibition of SARS-CoV-2 in cell-culture-based studies” value with SARS-CoV-2 (ref Cagno et al.) is “failed to inhibit”. Also, the “inhibition of SARS-CoV-1” value with SARS-CoV-1 is reported as “reported to inhibit”. The “inhibition of MERS coronavirus” value in series [3] is given as “reported to inhibit”.
